# Assay results published in the supplement of paper PMC10307832.
# Tests used:
# Test in all cases: relative viability (nuclei count vs DMSO), 5 days (fraction); higher = more cells survive
# [1] = compound: C1/C(=C\C2=CC=CS2)/C(=O)/C(=C/C3=CC=CS3)/C1 + CC(C)C[C@H](NC(=O)[C@H](Cc1ccccc1)NC(=O)c1cnccn1)B(O)O [Bortezomib] (partner 0.002 µM)
# Outline: (§1)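 For relative viability, nuclei counts in treated wells were divided by those in vehicle wells. Lung cancer cell lines had been pin-tool dosed in 1536-well plates the day after seeding and cultured for 5 days, then fixed and stained in one step (final 0.05% Triton X-100, 1% formaldehyde, 1 ug/ml Hoechst) and imaged at 4×. Doses were one drug alone or a fixed anchor-drug dose plus five library-drug doses (not always all listed) in √10 steps, and values are duplicate-plate medians.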
# [2] = compound: C[C@]12O[C@H](C[C@]1(O)CO)n1c3ccccc3c3c4c(c5c6ccccc6n2c5c31)CNC4=O [Lestaurtinib] + Nc1nc2[nH]cc(CCc3ccc(C(=O)N[C@@H](CCC(=O)O)C(=O)O)cc3)c2c(=O)[nH]1 [Pemetrexed] (partner 0.2 µM)
# Outline: as §1
# TPCA-1 + Palbociclib = compound: C1=CC(=CC=C1C2=CC(=C(S2)NC(=O)N)C(=O)N)F [TPCA-1] + CC(=O)c1c(C)c2cnc(Nc3ccc(N4CCNCC4)cn3)nc2n(C2CCCC2)c1=O [Palbociclib] (partner 0.5 µM)
# Outline: as §1
# [3] = compound: C1/C(=C\C2=CC=CS2)/C(=O)/C(=C/C3=CC=CS3)/C1 + C[C@]1(O)C[C@@H](c2nc(-c3ccc4ccc(-c5ccccc5)nc4c3)c3c(N)nccn32)C1 [Linsitinib] (partner 1 µM)
# Outline: as §1
Cell Line,relative viability ([1]; first compound 0.2 µM),relative viability ([1]; first compound 0.6325 µM),relative viability ([1]; first compound 2 µM),relative viability ([1]; first compound 6.325 µM),relative viability ([1]; first compound 20 µM),relative viability ([2]; first compound 0.005 µM),relative viability ([2]; first compound 0.01581 µM),relative viability ([2]; first compound 0.05 µM),relative viability ([2]; first compound 0.1581 µM),relative viability ([2]; first compound 0.5 µM),relative viability (TPCA-1 + Palbociclib; first compound 0.04 µM),relative viability (TPCA-1 + Palbociclib; first compound 0.1265 µM),relative viability (TPCA-1 + Palbociclib; first compound 0.4 µM),relative viability (TPCA-1 + Palbociclib; first compound 1.265 µM),relative viability (TPCA-1 + Palbociclib; first compound 4 µM),relative viability ([3]; first compound 0.2 µM),relative viability ([3]; first compound 0.6325 µM),relative viability ([3]; first compound 2 µM),relative viability ([3]; first compound 6.325 µM),relative viability ([3]; first compound 20 µM)
NCI-H1355,1.21,1.2,1.21,1.1,1.14,1.1,1.08,0.928,0.754,0.607,0.455,0.395,0.408,0.389,0.361,0.906,0.744,0.863,0.666,0.758
EKVX,1.11,1.02,1.12,0.933,1.1,0.419,,0.276,0.398,0.256,0.451,,0.469,0.269,0.394,1.1,1.05,0.974,0.776,1
NCI-H441,0.617,0.516,0.351,0.447,0.482,0.272,0.258,0.238,0.277,0.285,0.186,0.183,0.188,0.239,0.162,0.627,0.692,0.664,0.547,0.583
NCI-H1975,0.435,0.421,0.361,0.334,0.367,0.298,0.295,0.292,0.281,0.218,0.593,0.532,0.613,0.552,0.142,1.02,0.947,0.957,0.808,0.9
HCC-78,0.623,0.464,0.534,0.463,0.301,0.9,0.918,0.851,1,0.903,0.464,0.455,0.492,0.48,0.387,0.649,0.554,0.57,0.535,0.496
NCI-H2085,1.16,1.08,1.15,1.02,1.03,0.861,0.877,0.915,0.858,0.78,,0.47,0.489,0.443,0.46,1.05,0.941,0.805,0.797,1.05
H3255,0.778,0.82,0.71,0.84,0.618,0.578,0.623,0.493,0.563,0.428,0.275,0.292,0.285,0.293,0.279,0.949,0.92,0.909,0.728,0.913
NCI-H2087,0.922,0.742,0.963,0.512,0.73,0.708,0.688,0.675,0.632,0.332,0.253,0.241,0.218,0.237,0.155,1.06,1.05,0.928,0.678,0.936
LC-2-ad,1.03,1.05,1.02,0.871,1.02,0.258,0.277,0.252,0.258,0.186,0.467,0.465,0.49,0.489,0.421,0.832,0.838,0.875,0.69,0.847
PC-3 [JPC-3],0.845,0.956,0.88,0.76,0.884,0.747,1.5,0.918,0.94,0.613,0.516,0.538,0.514,0.537,0.285,1.1,0.956,0.949,0.891,0.949
EBC-1,0.524,0.558,0.551,0.441,0.605,,,,,,,,,,,0.904,0.973,0.887,0.801,0.942
HCC-15,1.06,1.03,1.03,0.884,1.03,0.244,0.227,0.229,0.195,0.138,0.835,0.698,0.801,0.694,0.472,0.899,0.921,0.846,0.734,0.888
NCI-H1563,1.01,0.912,1.11,0.86,0.859,0.71,0.855,0.613,0.797,0.723,,,,,,1.43,1.16,1.28,0.893,1.08
COR-L 105,1.02,0.73,1.03,0.678,0.662,1.06,1.19,1.14,0.743,0.631,0.419,0.457,0.419,0.379,0.359,0.976,0.905,0.939,0.766,0.878
NCI-H520,0.575,0.763,0.601,0.401,0.533,0.772,0.678,0.593,0.369,0.318,0.281,0.162,0.164,0.282,0.232,0.953,1.09,0.941,1.02,0.795
LU99A,1.21,1.13,1.26,0.668,0.941,0.152,0.153,0.217,0.14,0.128,0.468,0.365,0.407,0.369,0.258,0.535,0.497,0.574,0.353,0.61
NCI-H1666,0.724,0.67,0.643,0.559,0.666,0.988,0.92,0.948,0.95,0.707,0.653,0.661,0.605,0.673,0.64,0.828,0.762,0.776,0.481,0.825
NCI-H2170,,,,,,0.258,0.259,0.259,0.261,0.175,0.413,0.404,0.417,0.391,0.275,,,,,
NCI-H522,,,,,,1.01,1.08,1.01,0.784,0.502,1.15,0.978,1.06,1.04,0.953,,,,,
LCLC-97TM1,0.777,0.501,0.737,0.43,0.565,,0.183,0.149,0.146,0.132,0.231,0.2,0.199,0.232,0.206,0.183,0.169,0.187,0.158,0.197

Cell Line,relative viability ([1]; first compound 0.2 µM),relative viability ([1]; first compound 0.6325 µM),relative viability ([1]; first compound 2 µM),relative viability ([1]; first compound 6.325 µM),relative viability ([1]; first compound 20 µM),relative viability ([2]; first compound 0.005 µM),relative viability ([2]; first compound 0.01581 µM),relative viability ([2]; first compound 0.05 µM),relative viability ([2]; first compound 0.1581 µM),relative viability ([2]; first compound 0.5 µM),relative viability (TPCA-1 + Palbociclib; first compound 0.04 µM),relative viability (TPCA-1 + Palbociclib; first compound 0.1265 µM),relative viability (TPCA-1 + Palbociclib; first compound 0.4 µM),relative viability (TPCA-1 + Palbociclib; first compound 1.265 µM),relative viability (TPCA-1 + Palbociclib; first compound 4 µM),relative viability ([3]; first compound 0.2 µM),relative viability ([3]; first compound 0.6325 µM),relative viability ([3]; first compound 2 µM),relative viability ([3]; first compound 6.325 µM),relative viability ([3]; first compound 20 µM)
NCI-H1299,1.07,1.05,0.96,0.898,1.03,,,,,,,,,,,1.02,1.04,0.933,0.789,0.956
NCI-H3122,1.04,1.02,0.997,1.03,0.932,0.227,0.205,0.193,0.216,0.187,0.189,0.166,0.185,0.22,0.181,1.01,1.06,1.09,0.919,0.97
NCI-H1395,,,,,,0.788,1.03,0.559,0.775,0.379,0.644,0.596,0.639,0.635,0.512,1.12,1.06,1.29,0.89,1.05
NCI-H1944,,,,,,0.663,0.595,0.492,0.409,0.25,0.354,0.336,0.293,0.319,0.225,1.32,1.09,1.23,1.17,1.01
Calu-6,1.02,1.02,1,0.837,1.06,,,,,,,,,,,1.05,1.05,0.94,0.921,0.835
NCI-H1703,0.338,0.432,0.28,0.25,0.336,,,,,,,,,,,1.42,0.978,0.633,0.887,0.725
NCI-H1650,0.221,0.231,0.327,0.202,0.186,0.472,0.367,0.383,0.319,0.322,0.323,0.309,0.408,0.474,0.354,,,,,
NCI-H727,0.783,0.947,1.04,0.698,0.815,,,,,,0.761,0.47,0.594,0.62,0.593,0.263,0.302,0.314,0.228,0.263
NCI-H2342,,,,,,0.74,0.773,0.796,0.858,0.6,0.461,0.546,0.535,0.534,0.547,,,,,
ChaGo-K-1,0.998,0.934,0.967,0.559,0.517,0.267,0.268,0.261,0.249,0.205,0.976,0.663,0.795,0.891,0.733,,,,,
SW 900,,,,,,0.517,0.538,0.487,0.532,0.441,,,0.676,0.566,0.537,,,,,
ABC-1,0.33,0.349,0.336,0.265,0.253,,,,,,0.967,0.589,0.584,0.612,0.754,0.931,0.879,0.882,0.671,0.802
NCI-H1648,,,,,,,0.806,,1,0.606,0.254,0.245,0.262,0.254,0.199,,,,,
LK-2,,,,,,0.302,0.444,0.255,0.302,0.139,0.726,,0.725,0.697,0.427,0.641,0.857,0.633,0.583,0.59
NCI-H596,0.868,1.07,1.19,1.08,,0.487,0.488,0.504,0.476,0.453,,,,,,1.15,1.04,1.02,1.01,1.04
SK-MES-1,,,,,,0.982,0.918,0.506,0.413,0.26,0.346,0.333,0.325,0.319,0.327,1.05,1.1,0.992,0.818,0.982
NCI-H1793,,,,,,0.809,0.911,0.544,0.692,0.541,0.358,0.301,0.303,0.355,0.213,0.815,0.855,0.913,0.855,0.685
IA-LM,0.809,0.909,0.886,0.753,0.665,,,,,,,,,,,0.623,0.895,0.623,0.616,0.523
A549,,,,,,,,,,,,,,,,0.636,0.556,0.628,0.516,0.567
NCI-H358,,,,,,0.177,0.164,0.174,0.136,0.158,0.152,0.157,0.137,0.109,0.108,0.887,0.757,0.821,0.644,0.809
